Test results from publication PMC3629974 (Journal of nuclear medicine : official publication, Society …, 2011).

How the values were obtained:
[1] = target: human PKR1 (Homo sapiens, UniProt Q8TCW9); experiment: Competition cell-binding assay with ^125I-MIT-1 on CHO-PKR1 cells; details: PC-10 binding IC50 vs PC-7 functional IC50 (33 nM)
[2] = tested on: CHO-PKR1 cells; experiment: Cell uptake, internalization and efflux of ^18F-PC-10; format: cell-based, Chinese hamster
[3] = Ex vivo biodistribution in CFA-treated mice; set-up: species or system C57BL/6 mice; details: 2 h after injection
[4] = tested on: CFA-induced inflamed paw (PKR1-expressing); experiment: Small-animal PET of CFA-induced inflammatory pain model; format: in vivo, C57BL/6 mice

Sequence of human PKR1 (Q8TCW9 whole entry): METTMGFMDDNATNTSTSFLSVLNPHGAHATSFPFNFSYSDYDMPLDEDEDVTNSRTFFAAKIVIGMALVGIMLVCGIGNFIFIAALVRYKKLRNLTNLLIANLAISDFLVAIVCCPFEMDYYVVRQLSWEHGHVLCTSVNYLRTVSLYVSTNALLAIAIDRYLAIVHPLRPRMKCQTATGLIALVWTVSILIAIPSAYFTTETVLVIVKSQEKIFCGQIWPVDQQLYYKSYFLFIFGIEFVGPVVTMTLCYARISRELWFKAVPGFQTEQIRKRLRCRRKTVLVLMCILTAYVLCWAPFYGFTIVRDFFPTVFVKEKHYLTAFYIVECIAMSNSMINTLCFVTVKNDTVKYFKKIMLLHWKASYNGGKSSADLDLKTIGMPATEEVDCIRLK

SMILES	binding affinity to PKR1 lower than functional IC50 of PC-7 [1]	time at which cell uptake reached a plateau ([2]; 37°C)	time at which internalization reached a plateau ([2]; 37°C, stable up to 2 h)	part of observed uptake due to internalization ([2]; acid buffer pH 2.8 wash)	time after medium replacement at which half of the activity was unbound (efflux) ([2]; after 2 h loading)	time at which efflux reached a plateau ([2]; after medium replacement)	activity in blood [3]	uptake in bone [3]	uptake in kidneys [3]	uptake in liver [3]	uptake in salivary gland [3]	decrease of uptake in inflamed paw by blocking ([4]; 1 h after injection, coinjected with excess PC-7)	uptake in control paw ([4]; PET, 2 h after injection)
COc1ccc(Cn2c(NCCNC(=N)NC(=O)c3ccc(F)cc3)nc(=O)n(Cc3ccc(F)cc3)c2=O)cc1 [PC-10, N-(4-fluoro-benzoyl)-N′-{2-[5-(4-fluoro-benzyl)-1-(4-methoxy-benzyl)-4,6-dioxo-1,4,5,6-tetrahydro-[1,3,5]triazin-2-ylamino]-ethyl}-guanidine]	3 fold												
COc1ccc(Cn2c(NCCNC(=N)NC(=O)c3ccc([18F])cc3)nc(=O)n(Cc3ccc(F)cc3)c2=O)cc1 [^18F-PC-10, N-(4-^18F-fluoro-benzoyl)-N′-{2-[5-(4-fluoro-benzyl)-1-(4-methoxy-benzyl)-4,6-dioxo-1,4,5,6-tetrahydro-[1,3,5]triazin-2-ylamino]-ethyl}-guanidine]		0.5 h	0.5 h	Approximately half	≤ 15 min	1 h	0.22 ± 0.05 %ID/g	0.69 ± 0.12 %ID/g	5.26 ± 1.06 %ID/g	3.80 ± 1.14 %ID/g	3.05 ± 1.10 %ID/g	approximately 70%	0.13 ± 0.01 %ID/g
